The source of these data is patent US20030166631A1, “Pharmaceutical compositions and methods for administering EP2 receptor selective agonists” (priority 2001, published 2003).

Test [1] deals with metaphysis of the left tibia. To be noted: daily intraosseous injections for 14 days; cited from earlier work.
Test [2] deals with dogs. To be noted: local infusion for 3 weeks, 500 to 2000 μg per week; cited from earlier work.
The test system of test [3] is beagles. To be noted: 0.2 mg/kg in 10% ethanol into defect site twice a day for 10 days; cited from earlier work.
For test [4], the system named is adult beagles. To be noted: 0.2 mg in 0.5 ml injected into fracture sites twice a day for 10 days; cited from earlier work.
In test [5] the test system is beagle male dogs. The experiment in a line: Ulnar segmental defect model, enhancement of bone healing in dog. It counts as in vivo. Here is the method: It is clinically complex to heal segmental bone loss and non-union after fractures or reconstructive surgery. […] The following is a description of the ulnar segmental defect model used to evaluate bone healing in 11±1 kg beagle male dogs, 13 months old.
Beagle dogs were treated with antiparasitics one week before surgery and were given two doses of Baypamun (Bayer), 72 and 24 hours before the operation. Dogs were divided into four groups of eight animals.
Group A: 2 ml of phosphate buffered saline (PBS) was injected into the defect area filled with two helistat pre-cut sponges ([…]; 2.5×5 cm) 24, 48 and 72 hours following surgery.
Group B: 100 mg preparation of test compound was injected into the defect area filled with two helistat pre-cut sponges ([…]; 2.5×5 cm) 24 hours following surgery and for three consecutive days (24, 48 and 72 hours).
Group C: 100 mg preparation of test compound was injected into the defect area filled with two helistat pre-cut sponges ([…]; 2.5×5 cm) beginning 24 hours following surgery and daily thereafter for seven consecutive days.
Group D: 100 mg preparation of test compound was injected into the defect area filled with two helistat pre-cut sponges ([…]; 2.5×5 cm) 24 hours following surgery and daily thereafter for 14 days.
With animals under general anesthesia, the foreleg was prepped and draped in sterile fashion. A lateral incision approximately 10 cm in length was made and the ulna was exposed extraperiostally. Periosteum was cut and moved to the proximal and distal parts of the incision. Then 1.5 cm segmental defect was made in the midulna using a pendular saw. The radius and the remaining interosseal membrane were left intact. The defect site was irrigated with saline to remove bone debris. […] Both created bone ends were firmly stable and the radius served as a weight-bearing bone during the recovery process.
The site was then filled with the two helistat sponges as described above. In particular two Helistat sponges sized 2.5 times 5 cm were rolled to form a cylinder which was secured outside with fibrin net and two resorbable sutures. In that way subsequent dermal injections had larger areas of absorption. The soft tissues were meticulously closed in layers to aid the sponges. Injections were administered via dermal suture markers in such a way that the needle reached the opposing radius and then pulled back for approximately 5 mm. The total volume per injection was 2 ml consisting either of vehicle (PBS) or test compound in PBS. Following surgery animals were allowed full weight-bearing activity, water and food ad libitum. Radiographs of the forelimbs were obtained immediately following surgery and every two weeks thereafter until the termination of the study. Radiographs were graded on a 0 to 6 scale (Table A).
Dogs were sacrificed 12 weeks following surgery and the ulna was carefully dissected and fixed in 10% buffered formalin for histological analysis. As expected none of the control dogs re-bridged the defect confirming that the defect was a critical sized defect (Table B). Moreover, the non-union was pronounced permanent at the termination of the study since no significant progress in radiographs was observed between four and twelve weeks following surgery. In the 3-injections groups, none of the defects were re-bridged at the termination of the study. […] Radiographic scoring indicated a score between 2 and three for the dogs in this group.

In test [6] the test system is Male Sprague-Dawley rats. As to the kind of experiment: Rat periosteal injection model (local injection onto femur subperiosteum). It counts as in vivo. To be noted: for BMC: right femur, DEXA. Here is the method: Male Sprague-Dawley rats at 3 weeks of age were used. The rats were anesthetized with isoflurane inhalation (2-3 minutes) in a conduction chamber located in a fume hood. The right hindlimb of each rat was shaved and cleaned. A 26 G needle attached with a hamilton syringe pre-filled with testing solution was used for the local injection. The solution was injected onto the subperiosteum of the anterior, mid-diaphyseal region of the femur in a volume of 5 to 10 ul for various days. On day 15, the rats were sacrificed and the femurs were collected for analysis. Periosteal bone induction was assessed by using radiography, dual-energy X-ray absorptiometry (DEXA) and/or peripheral quantitative computed tomography (pQCT), and histomorphometry. (Michael E, Joyce, Anita B. Roberts, Michael B. Sporn, and Mark Bolander, “Transforming growth factor-β and the initiation of chondrogenesis and osteogenesis in the rat femur,” The Journal of Cell Biology 110:2195-2207 (1990)).
The right femurs of male Spray-Dawley rats were injected with either vehicle or test compound for 1, 3, 7, and 14 days, respectively. The solution was prepared using 2% glycine as vehicle at pH of approximately 7.8-7.9. All rats were sacrificed on day 15 and the right femurs were collected for analysis. […] The test compound was (3-(((4-tert-butyl-benzyl)-(pyridine-3-sulfonyl)-amino)-methyl)-phenoxy)-acetic acid, sodium salt;
The right femur of each rat was injected with test compound for 3, 7 and 14 days, respectively. The left femur of each rat was injected with vehicle to serve as its own control. The solution was prepared using 2% glycine as vehicle at pH of approximately 7.8-7.9. Drug concentration was 80 mg/ml. The injected volume was 5 μl/rat/d (0.4 mg/rat/d). All rats were sacrificed on day 15 and both right and left femurs were collected for analysis. […] The test compound was 7-{[2-(3,5-dichloro-phenoxy)-ethyl]-methanesulfonyl-amino}-heptanoic acid.

Setting [7] is: 14-injections group, eight dogs.
[8] abbreviates: Group D: 100 mg daily for 14 days, 12 weeks after surgery.

Consider `CCCCC[C@H](O)/C=C/[C@H]1[C@H](O)CC(=O)[C@@H]1C/C=C\CCCC(=O)O` [PGE2, Prostaglandin E2], for which the “trabecular bone in the metaphysis” value in test [1] was “significant increase of trabecular bone”.
For `CCCCC[C@H](O)/C=C/[C@H]1[C@H](O)CC(=O)[C@@H]1CCCCCCC(=O)O` [PGE1, prostaglandin E1], in test [2], the “alveolar bone formation in the mandible” value is reported as “produced a dramatic, localized formation of alveolar bone”. Besides, in test [3], the “periosteal and cortical endosteal bone formation” value is “more periosteal and cortical endosteal bone formation”. Further, in test [4], the “bone matrix formation at fracture site” value is listed as “induced bone matrix formation on the periosteal envelope”.
Turning to `CC(C)(C)c1ccc(CN(Cc2cccc(OCC(=O)[O-])c2)S(=O)(=O)c2cccnc2)cc1.[Na+]` [CP, (3-(((4-tert-butyl-benzyl)-(pyridine-3-sulfonyl)-amino)-methyl)-phenoxy)-acetic acid, sodium salt], in test [5] (3-injections group), the “defects re-bridged at termination of the study” value was “none”; the “histological analysis of newly formed bone” value was “complete mineralization of the newly formed bone”; the “new bone induction (osteoconduction and periosteal reaction)” value was “observed in all the dogs”. Besides, in test [5] (7-injections group), the “bone formation in the defect area” value was “Both endosteal and periosteal bone formation was observed”; the “dogs showing full re-bridgement” value was “none”; the “histological analysis of newly formed bone” value is “fully mineralized”. Moreover, the “dogs showing full re-bridgement by x-rays and histology” value in test [5] (14-injections group) is “two of the eight”. Further, in test [5] (setting [7]), the “dogs with large amount of new bone formation in defect area but defect not completely filled” value is “Three other dogs” and the “dogs with relatively less bone formation, pronounced non-responders” value was “Three dogs”. The Bridging/8 dogs in test [5] (Group B: 100 mg, 3 injections, 12 weeks after surgery) was 0/8. In addition, the “Bridging/8 dogs (medial healing)” value in test [5] (Group C: 100 mg daily for 7 days, 12 weeks after surgery) is 1/8 showed medial healing. Besides, in test [5] (Group D: 100 mg daily for 14 days, 0 to 6 scale), the “Radiographic Grading/8 dogs” value is 4-6. Also, in test [5] (setting [8]), the “Bridging/8 dogs (good bridging)” value is on record as 4/8 and the “dogs showing almost complete healing” value was “Three”. In test [6] (1 day of dosing, sacrifice day 15), this compound gave a BMC of 0.0469 ± 0.0030 g. The BMC in test [6] (3 days of dosing, sacrifice day 15) was found to be 0.0446 ± 0.0064 g. Moreover, in test [6] (7 days of dosing, sacrifice day 15), the BMC is on record as 0.0485 ± 0.0054 g. The compound further displayed a BMC in test [6] (14 days of dosing, sacrifice day 15) of 0.0533 ± 0.0044 g. The “excess calcified mass on anterior aspect of right femur, radiography” value in test [6] (14 days of treatment, sacrifice day 15) is “became significant”. The “excess calcified mass on anterior aspect of right femur, radiography” value in test [6] (injected for 7 days, sacrifice day 15) is reported as “started to show excess calcified mass”. Besides, in test [6] (one- or three-day treatment, sacrifice day 15), the periosteal bone formation entry was “did not result in periosteal bone formation”. Moreover, the “defined region bone area and bone mineral content (BMC) by DEXA compared to vehicle” value in test [6] (vs vehicle-treated rats (Table I)) is “significantly increased”.
For the compound `CS(=O)(=O)N(CCCCCCC(=O)O)CCOc1cc(Cl)cc(Cl)c1` [7-{[2-(3,5-dichloro-phenoxy)-ethyl]-methanesulfonyl-amino}-heptanoic acid], in test [6] (3-day treatment, eight femurs, 80 mg/ml, 5 μl/rat/d (0.4 mg/rat/d), left femur vehicle control), the “local bone formation by radiography” value was “did not show evidence for increase bone formation locally”. For the same compound, the “femurs showing increased calcified area by radiography” value in test [6] (7-day treatment, 80 mg/ml, 5 μl/rat/d (0.4 mg/rat/d), left femur vehicle control) is “Two out of eight”. Moreover, the “femurs showing increased calcified area locally compared to controls by radiography” value in test [6] (14-day treatment, 80 mg/ml, 5 μl/rat/d (0.4 mg/rat/d), left femur vehicle control) was “All femurs (n=8)”.
